Here are results for three compounds from patent US7208520B2, “Crystals of hydroxynorephedrine derivative” (Kissei Pharmaceutical Co., Ltd., priority 2001, dated 2007).

A short description of this data set: Stability test: storage at 60° C., residual percentage by HPLC and changes in appearance. Type of data set: physicochemical. The conditions noted are these: for Residual percentage: determined by HPLC. How it is done: Stability test was carried out under a condition of storage at 60° C. for crystalline form A obtained in Example 2, crystalline form B obtained in Example 3 and the amorphous form of compound (II) obtained in Reference Example 1. The residual percentage of test substances was determined by HPLC, and the changes in appearance were observed.

The mark [1] stands for this setting: storage at 60° C., 7 days, hydrochloride.

Structures are written as SMILES.

With `CCOC(=O)COc1cc(C)c(CCN[C@@H](C)[C@H](O)c2ccc(O)cc2)cc1C.Cl` [Example 2, Crystalline form A of ethyl (−)-2-[4-[2-[[(1S,2R)-2-hydroxy-2-(4-hydroxyphenyl)-1-methyethyl]amino]ethyl]-2,5-dimethylphenoxy]acetate hydrochloride], the Changes in appearance entry (storage at 60° C.) was “no changes in appearance”. Moreover, the Appearance result by setting is: (storage at 60° C., 7 days) “white”; (storage period: Initial) “white”. In addition, the Residual percentage under setting [1] stood at 100 and the Residual percentage (storage period: Initial) amounted to 100.

Turning to `CCOC(=O)COc1cc(C)c(CCN[C@@H](C)[C@H](O)c2ccc(O)cc2)cc1C.Cl` [Example 3, Crystalline form B of ethyl (−)-2-[4-[2-[[(1S,2R)-2-hydroxy-2-(4-hydroxyphenyl)-1-methyethyl]amino]ethyl]-2,5-dimethylphenoxy]acetate hydrochloride], the Changes in appearance result (storage at 60° C.) was “no changes in appearance”. The Appearance entry is, setting by setting: (storage at 60° C., 7 days) “white”; (storage period: Initial) “white”. For the same compound, the Residual percentage reads like this: under setting [1], 99.9; (storage period: Initial) 100.

Turning to `CCOC(=O)COc1cc(C)c(CCN[C@@H](C)[C@H](O)c2ccc(O)cc2)cc1C` [compound 1, Ethyl (−)-2-[4-[2-[[(1S,2R)-2-hydroxy-2-(4-hydroxyphenyl)-1-methyethyl]amino]ethyl]-2,5-dimethylphenoxy]acetate, reference compound], the Appearance entry is listed as “tannish” (storage at 60° C., 7 days) and “Color-” (storage period: Initial). Further, the Residual percentage runs as follows: (storage at 60° C., 7 days) 40.0; (storage period: Initial) 100.
